From patent US20240182460A1, “ALLOSTERIC CHROMENONE INHIBITORS OF PHOSPHOINOSITIDE 3-KINASE (PI3K) FOR THE TREATMENT OF DISEASE” (PETRA PHARMA CORPORATION, priority 2022, published 2024)

Experiment: Metabolic stability and intrinsic clearance in human liver microsomes (MICS)
Type: in vitro ADME
Settings: human, microsomes, pH 7.4
Protocol: Metabolic Stability and Intrinsic Clearance in Liver Microsomes (MICS)
One objective of this assay is to measure in vitro metabolic stability of a test compound in liver microsomes of one or more different species. The concentration of a control compound in the reaction system is evaluated by LC/MS/MS for calculating intrinsic clearance of a test compound and estimating the stability of the control compound and test compound in liver microsomes of one or more different species.
Microsomes (MICS). Human Liver Microsomes (HLM), Monkey Liver Microsomes (MKLM), Dog Liver Microsomes (DLM), Rat Liver Microsomes (RLM), and Mouse Liver Microsomes (MLM) are obtained at a concentration of 20 mg/mL protein from commercial sources and stored in a −80° C. freezer. Prior to use, liver microsomes are removed from the freezer and allowed to thaw in a 37° C. water bath and then stored on wet ice.
Stock Solutions. Test Compound (TC) Stock Solutions are prepared in DMSO at a concentration of 10 mM and stored for later use. Positive Control (PC) Stock Solutions of verapamil·HCL (FW: 491.1 g/mol) in DMSO are prepared at a concentration of 10 mM (4.91 mg/mL), and stored at the condition same as the stock solutions of test compounds.
Phosphate Buffer. Phosphate Buffer (100 mM, pH 7.4) is prepared by combining a Solution A and a Solution B as follows.
To prepare Solution A, 7.098 g of disodium hydrogen phosphate was combined with 500 mL of pure water and sonicated to dissolve. To prepare the Solution B, 3.400 g of potassium dihydrogen phosphate was combined with 250 mL of pure water and sonicated to dissolve. Solution A was placed on a stirrer and Solution B was slowly added into Solution A until the pH reached 7.4.
NADPH Solution. A 10 mM NADPH Solution is prepared by dissolving NADPH (MW: 833.4 g/mol) at 8.334 mg/mL in phosphate buffer (100 mM, pH 7.4).
Microsome Master Solution. A Microsome Master Solution is prepared by adding 6.25 μL microsomes (20 mg/mL) to 216.25 μL Phosphate Buffer (100 mM). The final concentration is Phosphate Buffer (100 mM); microsomes (0.5 mg/mL).
Dilution of Stock Solutions. The TC Stock Solutions (10 mM in DMSO) and the PC Stock Solutions (10 mM in DMSO) are diluted by adding 3 μL of the TC Stock Solution or the PC Stock Solution to 297 μL of 50% acetonitrile/50% water.
Incubation. Two separated experiments were performed as follows. a) With Cofactors (NADPH): 25 μL of 10 mM NADPH was added to the incubations. The final concentrations of
microsomes and NADPH were 0.5 mg/mL and 1 mM, respectively. b) Without Cofactors (NADPH): 25 μL of 100 mM Phosphate buffer was added to the incubations. The final concentration of microsomes was 0.5 mg/mL. The mixture was pre-warmed at 37° C. for 10 minutes.
The reaction was started with the addition of 2.5 μL of 100 μM PC solution or TC solutions.
Verapamil was used as PC in this study. The final concentration of test compound or control compound was 1 μM. The incubation solution was incubated in water batch at 37° C.
Reaction Termination. Aliquots of 30 μL were taken from the reaction solution at 0.5, 5, 15, 30 and 60 minutes and added to plates. The reaction was stopped by the addition of 5 volumes of cold acetonitrile and a solution containing 100 nM alprazolam, 200 nM caffeine and 100 nM tolbutamide.
Sampling. The plates containing the terminated reactions were centrifuged at 4000 rpm for 30 minutes. Supernatant of each compound (40 μL) was transferred into a 96-well analysis plate.
Four compound samples are pooled together into one cassette and diluted by adding 160 μL of pure water. All incubations are performed in duplicate.
Analysis and Data Processing. Quantitative LC-MS analysis is performed, and peak areas are determined from extracted ion chromatograms. Percent parent remaining was calculated from peak area of TC or PC. The slope value, k, is determined by linear regression of the natural logarithm of percent parent remaining vs. incubation time curve. […]

microsomal CLint at 1 μM [µL/min/mg] | Structure (SMILES)
< 50 | Cc1cc([C@@H](C)Oc2ccc(Cl)nc2S(N)(=O)=O)c2oc(-c3cnn(C)c3)c(Cl)c(=O)c2c1 (single isomer, unassigned) [Example 111C]
< 50 | Cc1cc([C@@H](C)Oc2ccc(Cl)nc2-c2noc(=O)[nH]2)c2oc(-c3cnc4scnc4c3)c(C)c(=O)c2c1 [Example 1B, 3-[6-Chloro-3-[(1R)-1-(3,6-dimethyl-4-oxo-2-thiazolo[5,4-b]pyridin-6-yl-chromen-8-yl)ethoxy]-2-pyridyl]-4H-1,2,4-oxadiazol-5-one]
< 50 | Cc1cc([C@@H](C)Oc2ccc(Cl)nc2S(N)(=O)=O)c2oc(-c3ccc4nn(C)cc4n3)c(C)c(=O)c2c1 [Example 5B, 6-Chloro-3-[(1R)-1-[3,6-dimethyl-2-(2-methylpyrazolo[4,3-b]pyridin-5-yl)-4-oxo-chromen-8-yl]ethoxy]pyridine-2-sulfonamide]
< 50 | Cc1cc([C@@H](C)Oc2ccc(Cl)nc2S(N)(=O)=O)c2oc(-c3ccn[nH]3)c(C)c(=O)c2c1 [Example 8C, 6-Chloro-3-[(1R)-1-[3,6-dimethyl-4-oxo-2-(1H-pyrazol-5-yl)chromen-8-yl]ethoxy]pyridine-2-sulfonamide]
< 50 | Cc1cc([C@@H](C)Oc2cccnc2C(N)=O)c2oc(-c3ccc4nn(C)cc4c3)c(C)c(=O)c2c1 [Example 10A, 3-[(1R)-1-[3,6-Dimethyl-2-(2-methylindazol-5-yl)-4-oxo-chromen-8-yl]ethoxy]pyridine-2-carboxamide]
< 50 | Cc1cc([C@@H](C)Oc2ccc(Cl)nc2S(N)(=O)=O)c2oc(-c3cnc(C)o3)c(C)c(=O)c2c1 [Example 10C, 6-Chloro-3-[(1R)-1-[3,6-dimethyl-2-(2-methyloxazol-5-yl)-4-oxo-chromen-8-yl]ethoxy]pyridine-2-sulfonamide]
< 50 | Cc1cc([C@@H](C)Oc2ccc(Cl)nc2C(N)=O)c2oc(-c3cnn4cccnc34)c(C)c(=O)c2c1 [Example 16B, 6-Chloro-3-[(1R)-1-(3,6-dimethyl-4-oxo-2-pyrazolo[1,5-a]pyrimidin-3-yl-chromen-8-yl)ethoxy]pyridine-2-carboxamide]
< 50 | Cc1cc([C@@H](C)Oc2ccc(Cl)nc2-c2noc(=O)[nH]2)c2oc(-c3ccc4nn(C)cc4c3)c(C)c(=O)c2c1 [Example 18A, 3-[6-Chloro-3-[(1R)-1-[3,6-dimethyl-2-(2-methylindazol-5-yl)-4-oxo-chromen-8-yl]ethoxy]-2-pyridyl]-4H-1,2,4-oxadiazol-5-one]
< 50 | Cc1cc([C@@H](C)Oc2ccc(F)nc2C(N)=O)c2oc(-c3ccc4nn(C)cc4c3)cc(=O)c2c1 [Example 19B, 6-Fluoro-3-[(1R)-1-[6-methyl-2-(2-methylindazol-5-yl)-4-oxo-chromen-8-yl]ethoxy]pyridine-2-carboxamide]

Same assay, conditions: pH 7.4; human liver microsomes 0.5 mg/mL, 1 μM compound; read-out: intrinsic clearance in human MICS

microsomal CLint at 1 μM [µL/min/mg] | Structure (SMILES)
< 50 | Cc1cc([C@@H](C)Oc2cccnc2-c2noc(=O)[nH]2)c2oc(-c3ccccc3)c(C)c(=O)c2c1 [Example 3, 3-[3-[(1R)-1-(3,6-Dimethyl-4-oxo-2-phenyl-chromen-8-yl)ethoxy]-2-pyridyl]-4H-1,2,4-oxadiazol-5-one]
< 50 | Cc1cc([C@@H](C)Oc2ccccc2-c2noc(=O)[nH]2)c2oc(-c3ccccc3)c(C)c(=O)c2c1 [Example 4, 3-[2-[(1R)-1-(3,6-Dimethyl-4-oxo-2-phenyl-chromen-8-yl)ethoxy]phenyl]-4H-1,2,4-oxadiazol-5-one]
< 50 | Cc1cc([C@@H](C)Oc2cccc(F)c2-c2noc(=O)[nH]2)c2oc(-c3ccccc3)c(C)c(=O)c2c1 [Example 5, 3-[2-[(1R)-1-(3,6-Dimethyl-4-oxo-2-phenyl-chromen-8-yl)ethoxy]-6-fluoro-phenyl]-4H-1,2,4-oxadiazol-5-one]
< 50 | Cc1cc([C@@H](C)Oc2ccc(Cl)nc2C(=O)NS(C)(=O)=O)c2oc(-c3ccccc3)c(C)c(=O)c2c1 [Example 6, 6-Chloro-3-[(1R)-1-(3,6-dimethyl-4-oxo-2-phenyl-chromen-8-yl)ethoxy]-N-methylsulfonyl-pyridine-2-carboxamide]
